Laboratory results as given in patent US8906828B2, “Compositions and methods for post emergent weed control with clethodim and gibberellic acid” (Valent U.S.A. Corporation, priority 2012, dated 2014).

Key:
[1] = system: Glyphosate resistant corn; experiment: Clethodim and GA3 treatments on planted glyphosate resistant corn, % control (Example 2); type: in vivo
Experimental: A further study was performed in order to confirm the effect clethodim and GA3 treatments have on corn. Glyphosate resistant corn was planted with a conventional four-row planter. Treatments were applied 28 days after the plantings.
The percent corn control was evaluated at […] days following the treatments. Effect of Clethodim and GA3 Treatments on corn (% control).

[2] = system: Johnsongrass; experiment: Post emergent treatment of plots with abundant Johnsongrass growth, % control (Example 1); type: in vivo, Sorghum halepense
Experimental: In order to determine the efficacy of combinations of clethodim and GA3, numerous treatments were applied to plots in an area with abundant Johnsongrass growth.
The percent control of Johnsongrass plants was evaluated at 7, 18 and 28 days following the treatment. Effect of Clethodim and GA3 Treatments on Johnsongrass (% control).”
The percent control refers to the amount of dead tissue on the plants present. It would be dead plants plus desiccated foliage on partially killed plants.

Structure (SMILES): CCSC(C)CC1CC(=O)C(C(CC)=NOC/C=C/Cl)=C(O)C1 (centres unmarked) [Clethodim, 2-[1-[[[(2E)-3-chloro-2-propen-1-yl]oxy]imino]propyl]-5-[2-(ethylthio)propyl]-3-hydroxy-2-cyclohexen-1-one]
- Corn % control 6 DAT ([1]; Clethodim 32 gm ai/a, 0.25% v/v non-ionic surfactant and 2.5 lb/acre ammonium sulfate, 6 DAT): 48.33%
- Corn % control 13 DAT ([1]; Clethodim 32 gm ai/a, 0.25% v/v non-ionic surfactant and 2.5 lb/acre ammonium sulfate, 13 DAT): 88.33%
- Corn % control 29 DAT ([1]; Clethodim 32 gm ai/a, 0.25% v/v non-ionic surfactant and 2.5 lb/acre ammonium sulfate, 29 DAT): 96.00%
- Johnsongrass % control 7 DAT ([2]; Clethodim 32 x g ai/a (9 fl oz/a of Selectmax), 0.25% v/v non-ionic surfactant and 2.5 lb/acre AMS, 7 DAT): 37.21%
- Johnsongrass % control 18 DAT ([2]; Clethodim 32 x g ai/a (9 fl oz/a of Selectmax), 0.25% v/v non-ionic surfactant and 2.5 lb/acre AMS, 18 DAT): 85.66%
- Johnsongrass % control 28 DAT ([2]; Clethodim 32 x g ai/a (9 fl oz/a of Selectmax), 0.25% v/v non-ionic surfactant and 2.5 lb/acre AMS, 28 DAT): 89.26%

Structure (SMILES): C=C1C[C@]23C[C@@]1(O)CC[C@H]2[C@@]12C=C[C@H](O)[C@@](C)(C(=O)O1)[C@H]2[C@@H]3C(=O)O [GA3, Gibberellic acid]
- Effect of GA3 on the activity of clethodim on corn ([1]; presence of GA3): significantly increased
- Effect of GA3 on the activity of clethodim on Johnsongrass ([2]; seven days following treatment, versus clethodim alone): more than doubles
